Results taken from patent publication US5606037A, “Processes antineoplastic heteronaphthoquinones” (BioChem Pharma Inc., priority 1995, dated 1997).
Counter-ions that a name gives are not always drawn.

Key:
Format in all cases: cell-based, Human
[1] = tested on: SKVLB (Ovarian; multidrug resistant); assay: In vitro cytotoxicity, microculture tetrazolium (MTT) assay, SKVLB; details: Homo sapiens; SKVLB multidrug resistant ovarian; 48 h with compound, further 48 h, MTT; Table 1
Protocol: (§1) The microculture tetrazolium assay was used to test in vitro cytotoxicity. This assay is described in Plumb, J. A. et al., 1989 Cancer Research 49, 4435-4440, which is herein incorporated by reference. The cytotoxicity of compounds towards tumor cells is measured in vitro using the assay. This assay method is based upon the ability of live, but not dead cells to reduce the yellow water soluble dye 3-(4,5-dimethylthiazol-2-yl)-2,5-diphenyltetrazolium bromide (MTT) to its water insoluble purple formazan product.
(§2) Human Tumor Cell lines, used were:
SKVLB (Ovarian; multidrug resistant)--Dr. V. Ling, Ontario Cancer Institute.
(§3) The cells were maintained in exponential growth in culture in minimal essential media (MEM) supplemented with non-essential amino acids, and containing 15% (v/v) fetal. bovine serum, 5 mM L-glutamine, 1 mM sodium pyruvate, and 0.1 U/ml insulin. All cell lines were grown at 37° C. in an atmosphere of 5% CO2 in air.
(§4) MTT: 2 mg/ml in phosphate buffered saline (stable at 4° C. in dark for 1 week).
(§5) Sorensen's buffer: 0.1M glycine/NaOH, pH 10.5, containing 0.1M NaCl.
(§6) Test compounds: 20 mM in DMSO and diluted to a final concentration of 200 μM in culture medium before use.
(§7) For each assay, doxorubicin is included as an inter-assay standard. This allows us to monitor the behaviour of the assay in general, and in particular, to check that the SKVLB line has maintained its resistant phenotype.
(§8) The assays are carried out in 96-well (8 well×12 well) microtiter plates. Serial dilutions of the compound are tested along the length of the plate. A 1:3 serial dilution of compound in culture medium covers a concentration range from 100 μM to 1.7 nM. Each concentration of compound is tested in quadruplet, allowing two compounds to be tested per plate. Wells containing no cells (blank) and cells with no test compound (control) are included on each plate.
(§9) Cells are plated out in 100 μl of culture medium in the microtiter plates at a density of around 1,500-4,000 cells per well. The plates are incubated overnight to allow the cells to become adherent after which the test compound is added (100 μl of appropriate dilution per well). The cells are incubated with test compound at 37° C. for 48 h after which the compound is replaced with fresh medium. After a further 48 h incubation at 37° C., 50 μl of MTT solution (2 mg/ml) is added to each well. The plates are incubated in the dark for 4 h at 37° C. after which the medium is removed. The MTT formazan product is extracted from the cells by the addition of 200 μl DMSO followed by 50 μl of Sorensen's buffer. The plates are shaken briefly and the absorbance at 570 nm is read using a Molecular Devices UV max plate reader. Curves are fit to the MTT assay data using a four parameter logistic equation, and the data are normalized to fit a 0% to 100% survival scale.

[2] = tested on: HT 29 (Colon adenocarcinoma); assay: In vitro cytotoxicity, microculture tetrazolium (MTT) assay, HT29; details: Homo sapiens, HT-29, 48 h with compound, further 48 h, Table 1
Protocol: as §1, §2
HT 29 (Colon adenocarcinoma) ATCC catalog #HTB-38.
as §3, §4, §5, §6, §7, §8, §9

[3] = tested on: T47D (Ductal carcinoma of breast); assay: In vitro cytotoxicity, microculture tetrazolium (MTT) assay, T47D; details: Homo sapiens, 48 h with compound, further 48 h, Table 1
Protocol: as §1, §2
T47D (Ductal carcinoma of breast)--ATCC catalog #HTB-133.
as §3, §4, §5, §6, §7, §8, §9

[4] = tested on: SKOV3 (Ovarian adenocarcinoma); assay: In vitro cytotoxicity, microculture tetrazolium (MTT) assay, SKOV3; details: Homo sapiens, SK-OV-3; SKOV3 ovarian adenocarcinoma; 48 h with compound, further 48 h, MTT; Table 1
Protocol: as §1, §2
SKOV3 (Ovarian adenocarcinoma)--provided by Dr. V. Ling, Ontario Cancer Institute.
as §3, §4, §5, §6, §7, §8, §9

Lox (Melanoma) = assay: In vitro cytotoxicity, microculture tetrazolium (MTT) assay, LOX; details: Homo sapiens, 48 h with compound, further 48 h, Table 1
Protocol: as §1, §2
Lox (Melanoma)--Southern Research Institute.
as §3, §4, §5, §6, §7, §8, §9

Row | Compound | IC50 [1] | IC50 [2] | IC50 [3] | IC50 [4] | IC50 (Lox (Melanoma))
1 | CC(=O)[C@H]1CC2=C(C(=O)c3ccc(O)cc3C2=O)[C@H](O[C@H]2C[C@H](NC(=O)C(F)(F)F)[C@H](O)[C@H](C)O2)O1 [BCH1180, (1'S,1S,3R)-Methyl (5,10-dioxo-1-(2',3',6'-trideoxy-3'-trifluoroacetamido-L-lyxohexopyranose)-7-hydroxy-3,4,5, 10-tetrahydro[2,3-C]pyran-3-yl) ketone] | 8680 nM | 468 nM | 7610 nM | 851 nM | 3330 nM
2 | CC[C@H]1CC2=C(C(=O)c3ccccc3C2=O)[C@H](O[C@H]2C[C@H](NC(=O)C(F)(F)F)[C@H](O)[C@H](C)O2)O1 [BCH2020, (1'S, 1S, 3S)-5,10-dioxo-3-ethyl-1-(2',3',6'-trideoxy-3'-trifluoroacetamido-L-lyxohexopyranose)-3,4,5,10-tetrahydro-1H-naphtho-[2,3-c]-pyran] | 25900 nM | 19100 nM | 9420 nM | 11200 nM | 5450 nM
3 | CC(=O)C1CC2=C(C(=O)c3ccccc3C2=O)C(OCC2CCCN(C(=O)OC(C)(C)C)C2)O1 (mixture of isomers) [BCH2060, Methyl-(1-O-[N-BOC-3-piperidinemethanol]-5,6-dioxo-3,4,5,10-tetrahydronaphthaleno-[2,3-c]pyran-3-yl) ketone] | 2500 nM | 260 nM | 562 nM | 1140 nM | 1950 nM
4 | COC(=O)[C@@H](N)COC1OC(C(C)=O)CC2=C1C(=O)c1ccccc1C2=O (mixture of isomers) [BCH1654, (1S, 2'S, 3R) and (1R, 2'S, 3S)-methyl-(1-[O-serinemethyl ester]-5,10-dioxo-3,4,5,10-tetrahydronaphtaleno[2,3-C]pyran-3-yl) ketone hydrochloride] | 3730 nM | 3580 nM | 1590 nM | 710 nM | 1190 nM
5 | CC(=O)[C@@H]1CC2=C(C(=O)c3ccccc3C2=O)[C@@H](O[C@H]2C[C@H](NC(=O)C(F)(F)F)[C@H](I)[C@H](C)O2)O1 [BCH1620, (1'-S,1-R,3-S)-methyl-(1-[2',3',6'-trideoxy-3'-trifluoroacetamido-4'-iodo-L-lyxohexopyranose]-5,10-dioxo-3,4,5,10-tetrahydronaphtho-[2,3-c]-pyran-3-yl)-ketone] | 216 nM | 32.8 nM | 183 nM | 4.2 nM | 22.7 nM
6 | CO[C@H]1C[C@H](O[C@H]2O[C@H](C(C)=O)CC3=C2C(=O)c2ccccc2C3=O)O[C@@H](C)[C@H]1OS(C)(=O)=O [BCH2070, (1'-S, 1-R, 3-S)-methyl-(1-[2',3',4',6' tetradeoxy-3'-methoxy-4'-O-methanesulfonyl-L-lyxohexopyranose)-5,10-dioxo-3,4,5,10 tetrahydronaphtho-[2,3-c]pyran-3-yl) ketone] | 120 nM | 6 to 534 nM | 18 nM | 8.4 nM | 15 nM
7 | CC(C)C(=O)[C@@H]1CC2=C(C(=O)c3ccccc3C2=O)[C@@H](O[C@H]2C[C@H](NC(=O)C(F)(F)F)[C@H](O)[C@H](C)O2)O1 [BCH2112, (1'S, 1R, 3S)-isopropyl-[1-(2',3',6'-trideoxy-3'-trifluoroacetamido-L-lyxohexopyranose)-5,10-dioxo-3,4,5,10-tetrahydro-1H-naphtho-[2,3-c]-pyranyl]-ketone] | 1700 nM | 65 nM | 270 nM | 104 nM | 210 nM
8 | COCC1(COC)CC2=C(C(=O)c3ccccc3C2=O)[C@H](O[C@H]2C[C@H](NC(=O)C(F)(F)F)[C@H](O)[C@H](C)O2)O1 [BCH1697] | 13200 nM | 11000 nM | 18000 nM | 3700 nM | 5320 nM
9 | CC(=O)[C@H]1CC2=C(C(=O)c3ccccc3C2=O)[C@H](O[C@@H]2O[C@@H](C)[C@@H](O)[C@@H](NC(=O)C(F)(F)F)C2I)O1 (stereo partly drawn) [BCH2022, (1'S,1S,3R)-methyl-(1-[2',3',6'-trideoxy-2'-iodo-3'-trifluoroacetamido-4'-hydroxy-L-lyxohexopyranose]-5,10-dioxo-3,4,5,10-tetrahydronaphtho-[2,3-c]-pyran-3-yl) ketone] | 1870 nM | 532 nM | 934 nM | 442 nM | 484 nM
10 | COC(=O)[C@H](CC(C)C)NC(=O)[C@H](CO[C@H]1O[C@H](C(C)=O)CC2=C1C(=O)c1ccccc1C2=O)NC(=O)OC(C)(C)C [BCH1998, (1S,2'S,3S,5'S)-Methyl-(1-O-[N-BOC-Serine-Leucine-Me ester]-5,10-dioxo-3,4,5,10-tetrahydro-1-H-naphtho[2,3-c]pyran-3-yl) ketone] | 1660 nM | 36.3 nM | 114 nM | 125 nM | 63.1 nM
11 | CC(=O)[C@@]1(C)CC2=C(C(=O)c3ccccc3C2=O)[C@H](O[C@H]2C[C@H](NC(=O)C(F)(F)F)[C@H](O)[C@H](C)O2)O1 [BCH2082, (1'S, 1S, 3R)-1-(3'-trifluoroacetamido-2',3',6'-trideoxy-L-lyxohexopyranose)-3-acetyl-3-methyl-5,10-dioxo-4,5,10-trihydro-1H-naphtho-[2,3-c]-pyran] | 5600 nM | 2600 nM | 4000 nM | 1800 nM | 1600 nM
12 | COC(=O)[C@]1(C)CC2=C(C(=O)c3ccccc3C2=O)[C@@H](O[C@H]2C[C@H](NC(=O)C(F)(F)F)[C@H](O)[C@H](C)O2)O1 [BCH2077, (1'S, 1R, 3S)-1-(3-trifluoroacetamido-2',3',6'-trideoxy-L-lyxohexopyranose)-3-methoxycarbonyl-3-methyl-3,4,5,10-tetrahydro-5,10-dioxo-1H-naphtho-[2,3-c]pyran] | 21000 nM | 3400 nM | 7700 nM | 1940 nM | 1910 nM
13 | CC(=O)[C@H]1CC2=C(C(=O)c3ccccc3C2=O)[C@H](O[C@H]2C[C@H](NC(=O)C(F)(F)F)[C@H](Br)[C@H](C)O2)O1 [BCH2047, (1S,3R,1'S)-Methyl-(1-[2',3',4',6'-tetradeoxy-3'-trifluoroacetamido-4'-bromo-L-lyxohexopyranose]-5,10-dioxo-3,4,5,10-tetrahydronaphthaleno-[2,3-c]pyran-3-yl) ketone] | 523 nM | 4.1 nM | 151 nM | 17 nM | 21 nM
14 | CC[C@H]1CC2=C(C(=O)c3ccccc3C2=O)[C@H](O[C@H]2C[C@H](N)[C@H](O)[C@H](C)O2)O1 [BCH2021, (1'S,1S,3S)-5,10-dioxo-3-ethyl-1-(2',3',6'-trideoxy-3'-amino-L-lyxohexopyranose)-3,4,5,10-tetrahydro-1H-naphtho-[2,3-c]-pyran hydrochloride] | 46400 nM | 37800 nM | 19000 nM | 12400 nM | 10600 nM
15 | COC1OC(C(C)=O)=CC2=C1C(=O)c1ccccc1C2=O (stereo not drawn) [BCH2129, 3-Aceto-5,10-dioxo-1-methoxy-5,10-dihydro-1H-naphtho-(2,3-c)-pyran] | 1060 nM | 2070 nM | 452 nM | 359 nM | 228 nM
